Measurements from ChEMBL document CHEMBL3885881, “DrugMatrix”.

Species: Rattus norvegicus
Assay: DrugMatrix - Regimen: Daily Repeat
Assay type: toxicity, organism-based, Sprague-Dawley
Set-up: regimen Daily Repeat, gender Male, age 6-8 weeks
Conditions: in vivo, po, route oral GAVAGE, vehicle .5 % CMC; for ABSOLUTE BASOPHIL / ABSOLUTE EOSINOPHIL / ABSOLUTE LYMPHOCYTE / ABSOLUTE MONOCYTE / ABSOLUTE SEGMENTED NEUTROPHIL / BASOPHIL / EOSINOPHIL / ERYTHROCYTE COUNT / HEMATOCRIT / HEMOGLOBIN / LEUKOCYTE COUNT / LYMPHOCYTE / MEAN CORPUSCULAR HEMOGLOBIN / MEAN CORPUSCULAR HEMOGLOBIN CONCENTRATION / MEAN CORPUSCULAR VOLUME / MONOCYTE / NEUTROPHIL / NUCLEATED RED BLOOD CELLS / PLATELET COUNT: tissue Blood; for ALANINE AMINOTRANSFERASE / ALBUMIN / ALKALINE PHOSPHATASE / ASPARTATE AMINOTRANSFERASE / BLOOD UREA NITROGEN / CARBON DIOXIDE / CHLORIDE / CHOLESTEROL / CREATINE PHOSPHOKINASE / CREATININE / GLUCOSE / LACTATE DEHYDROGENASE / LIPASE / PHOSPHORUS / POTASSIUM / SODIUM / TOTAL BILIRUBIN / TOTAL PROTEIN / URIC ACID: tissue Plasma
[1] = 15 mg/kg, 120 h, dose level Low, time 5 day
[2] = 1500 mg/kg, 72 h, dose level High, time 3 day
[3] = 1500 mg/kg, 120 h, dose level High, time 5 day

COC(=O)c1ccc(O)cc1 [METHYLPARABEN]
ABSOLUTE BASOPHIL [1]: 0 CELLS/uL | ABSOLUTE EOSINOPHIL [1]: 60.67 CELLS/uL | ABSOLUTE LYMPHOCYTE [1]: 12673.33 CELLS/uL | ABSOLUTE MONOCYTE [1]: 0 CELLS/uL | ABSOLUTE SEGMENTED NEUTROPHIL [1]: 1232.67 CELLS/uL | BASOPHIL [1]: 0% | EOSINOPHIL [1]: 0.33% | ERYTHROCYTE COUNT [1]: 5.42 x10E6/uL | HEMATOCRIT [1]: 34.93% | HEMOGLOBIN [1]: 13.97 G/DL | LEUKOCYTE COUNT [1]: 13.97 x10E3/uL | LYMPHOCYTE [1]: 91% | MEAN CORPUSCULAR HEMOGLOBIN [1]: 25.8 pg | MEAN CORPUSCULAR HEMOGLOBIN CONCENTRATION [1]: 40 G/DL | MEAN CORPUSCULAR VOLUME [1]: 64.4 fL | MONOCYTE [1]: 0% | NEUTROPHIL [1]: 8.67% | NUCLEATED RED BLOOD CELLS [1]: 0 /100WBC | PLATELET COUNT [1]: 1233.67 x10E3/uL | ALANINE AMINOTRANSFERASE [1]: 58.67 u/L | ALBUMIN [1]: 3.9 G/DL | ALKALINE PHOSPHATASE [1]: 392.67 u/L | ASPARTATE AMINOTRANSFERASE [1]: 87.33 u/L | BLOOD UREA NITROGEN [1]: 17.67 mg/dL | CARBON DIOXIDE [1]: 26 mmol/L | CHLORIDE [1]: 101.67 MEQ/L | CHOLESTEROL [1]: 65.33 mg/dL | CREATINE PHOSPHOKINASE [1]: 524 u/L | CREATININE [1]: 0.12 mg/dL | GLUCOSE [1]: 151 mg/dL | LACTATE DEHYDROGENASE [1]: 137.67 u/L | LIPASE [1]: 9.33 u/L | PHOSPHORUS [1]: 14.13 mg/dL | POTASSIUM [1]: 6.95 MEQ/L | SODIUM [1]: 142.07 MEQ/L | TOTAL BILIRUBIN [1]: 0.23 mg/dL | TOTAL PROTEIN [1]: 5.7 G/DL | URIC ACID [1]: 1.93 mg/dL | ABSOLUTE BASOPHIL [2]: 0 CELLS/uL | ABSOLUTE EOSINOPHIL [2]: 0 CELLS/uL | ABSOLUTE LYMPHOCYTE [2]: 15298 CELLS/uL | ABSOLUTE MONOCYTE [2]: 225.33 CELLS/uL | ABSOLUTE SEGMENTED NEUTROPHIL [2]: 3076.67 CELLS/uL | BASOPHIL [2]: 0% | EOSINOPHIL [2]: 0% | ERYTHROCYTE COUNT [2]: 5.36 x10E6/uL | HEMATOCRIT [2]: 33.07% | HEMOGLOBIN [2]: 13.37 G/DL | LEUKOCYTE COUNT [2]: 18.6 x10E3/uL | LYMPHOCYTE [2]: 82.67% | MEAN CORPUSCULAR HEMOGLOBIN [2]: 25.03 pg | MEAN CORPUSCULAR HEMOGLOBIN CONCENTRATION [2]: 40.47 G/DL | MEAN CORPUSCULAR VOLUME [2]: 61.8 fL | MONOCYTE [2]: 1.33% | NEUTROPHIL [2]: 16% | NUCLEATED RED BLOOD CELLS [2]: 0 /100WBC | PLATELET COUNT [2]: 1154.33 x10E3/uL | ALANINE AMINOTRANSFERASE [2]: 60 u/L | ALBUMIN [2]: 4.03 G/DL | ALKALINE PHOSPHATASE [2]: 433.33 u/L | ASPARTATE AMINOTRANSFERASE [2]: 87 u/L | BLOOD UREA NITROGEN [2]: 18 mg/dL | CARBON DIOXIDE [2]: 30.33 mmol/L | CHLORIDE [2]: 95.67 MEQ/L | CHOLESTEROL [2]: 67.67 mg/dL | CREATINE PHOSPHOKINASE [2]: 211.67 u/L | CREATININE [2]: 0.15 mg/dL | GLUCOSE [2]: 165.67 mg/dL | LACTATE DEHYDROGENASE [2]: 122 u/L | LIPASE [2]: 9 u/L | PHOSPHORUS [2]: 12.87 mg/dL | POTASSIUM [2]: 6.96 MEQ/L | SODIUM [2]: 141.63 MEQ/L | TOTAL BILIRUBIN [2]: 0.23 mg/dL | TOTAL PROTEIN [2]: 5.77 G/DL | URIC ACID [2]: 1.4 mg/dL | ABSOLUTE BASOPHIL [3]: 0 CELLS/uL | ABSOLUTE EOSINOPHIL [3]: 0 CELLS/uL | ABSOLUTE LYMPHOCYTE [3]: 16336 CELLS/uL | ABSOLUTE MONOCYTE [3]: 67.33 CELLS/uL | ABSOLUTE SEGMENTED NEUTROPHIL [3]: 1396.67 CELLS/uL | BASOPHIL [3]: 0% | EOSINOPHIL [3]: 0% | ERYTHROCYTE COUNT [3]: 5.64 x10E6/uL | HEMATOCRIT [3]: 35.9% | HEMOGLOBIN [3]: 14.27 G/DL | LEUKOCYTE COUNT [3]: 17.8 x10E3/uL | LYMPHOCYTE [3]: 92% | MEAN CORPUSCULAR HEMOGLOBIN [3]: 25.3 pg | MEAN CORPUSCULAR HEMOGLOBIN CONCENTRATION [3]: 39.77 G/DL | MEAN CORPUSCULAR VOLUME [3]: 63.6 fL | MONOCYTE [3]: 0.33% | NEUTROPHIL [3]: 7.67% | NUCLEATED RED BLOOD CELLS [3]: 0 /100WBC | PLATELET COUNT [3]: 1293.33 x10E3/uL | ALANINE AMINOTRANSFERASE [3]: 45.33 u/L | ALBUMIN [3]: 4.33 G/DL | ALKALINE PHOSPHATASE [3]: 338.33 u/L | ASPARTATE AMINOTRANSFERASE [3]: 85 u/L | BLOOD UREA NITROGEN [3]: 15.67 mg/dL | CARBON DIOXIDE [3]: 30 mmol/L | CHLORIDE [3]: 100.67 MEQ/L | CHOLESTEROL [3]: 76 mg/dL | CREATINE PHOSPHOKINASE [3]: 311.33 u/L | CREATININE [3]: 0.22 mg/dL | GLUCOSE [3]: 154.33 mg/dL | LACTATE DEHYDROGENASE [3]: 98 u/L | LIPASE [3]: 9 u/L | PHOSPHORUS [3]: 11.73 mg/dL | POTASSIUM [3]: 6.62 MEQ/L | SODIUM [3]: 145.9 MEQ/L | TOTAL BILIRUBIN [3]: 0.27 mg/dL | TOTAL PROTEIN [3]: 6.1 G/DL | URIC ACID [3]: 1.9 mg/dL
